Experimental findings from ChEMBL document CHEMBL3882721, “2-phenyl benzimidazoles and imidazo-4,5|-pyridines as CDS1/CHK2-inhibitors and adjuvants to chemotherapy or radiation therapy in the treatment of cancer” (2007) are described below.

One assay relates to spleen. The assay is described as follows: Cytoprotective activity against 137Cs gamma-radiation-induced apoptosis in C57/BL6 mouse spleen cells preincubated for 1 hr followed by irradiation measured after 6 to 24 hrs by annexin V/FITC-propidium iodide staining-based FACS analysis. The assay is classed as functional, cell-based.
Assay [1] in a line: Anticlonogenic activity against ionizing radiation/chemotherapeutic agent-treated clonogenic tumor cells (unknown origin) preincubated for 12 to 48 hrs followed by growth medium addition without compound measured after 7 to 14 days by crystal violet staining-based assay relative to control. The assay is classed as functional.

Calls of active or inactive are those of the source. The calls are words filed in the database; no cut-off is given here.

In the case of `NC(=O)c1ccc2[nH]c(-c3ccc(Sc4ccc(O)cc4)cc3)nc2c1`, in the assay with spleen, the outcome was Active.

With `NC(=O)c1ccc2[nH]c(-c3ccc(Sc4ccc(Cl)cc4)nc3)nc2c1`, the outcome with spleen was Active.

For `NC(=O)c1ccc2[nH]c(-c3ccc(Oc4ccc5c(c4)OCO5)cc3)nc2c1`, the result in the assay on spleen was Active.

Turning to `COc1cc(Oc2ccc(-c3nc4cc(C(N)=O)ccc4[nH]3)cc2)ccc1Br`, the outcome in the assay with spleen was Active.

Consider `NC(=O)c1ccc2[nH]c(-c3ccc(Sc4ccc(F)c(Cl)c4)cc3)nc2c1`, for which, in the assay on spleen, the outcome was Active.

For the compound `COc1cccc(Sc2ccc(-c3nc4cc(C(N)=O)ccc4[nH]3)cc2)c1`, the result with spleen was Active.

For the compound `NC(=O)c1ccc2[nH]c(-c3ccc(Oc4ccc5ccccc5c4)cc3)nc2c1`, the result in the assay on spleen was Active.

Take `COc1ccc(Sc2ccc(-c3nc4cc(C(N)=O)ccc4[nH]3)cc2)cc1`: the outcome in the assay with spleen was Active.

Consider `NC(=O)c1ccc2[nH]c(-c3ccc(Oc4ccc(I)cc4)cc3)nc2c1`, for which, in the assay with spleen, the outcome was Active.

Consider `Cc1ccc(Sc2ccc(-c3nc4cc(C(N)=O)ccc4[nH]3)cn2)cc1`, for which the result in the assay on spleen was Active.

For the compound `NC(=O)c1ccc2[nH]c(-c3ccc(Oc4ccc(Br)cc4)cc3)nc2c1`, in the assay with spleen, the outcome was Active.

As for `NC(=O)c1ccc2[nH]c(-c3ccc(Oc4ccc(Br)c(O)c4)cc3)nc2c1`, in the assay with spleen, the outcome was Active.

As for `NC(=O)c1ccc2[nH]c(-c3ccc(Oc4ccc(Cl)cc4)cc3)nc2c1`, the result (in assay [1]; in the assay on spleen) was Active.
